Measurements taken from ChEMBL document CHEMBL1781929, “Novel benzo[b]thiophene derivatives as new potential antidepressants with rapid onset of action” (J Med Chem, 2011).
Activity calls are given as the source filed them. No cut-off for these calls is given here.

Columns and labels:
[1] = target: T1, 5-hydroxytryptamine receptor 7 (Homo sapiens, UniProt P34969); test: Inverse agonist activity at human 5HT7 receptor expressed in HEK293 cells assessed as effect on cAMP production after 20 mins; type: functional, cell-based
T1 sequence (P34969 whole entry): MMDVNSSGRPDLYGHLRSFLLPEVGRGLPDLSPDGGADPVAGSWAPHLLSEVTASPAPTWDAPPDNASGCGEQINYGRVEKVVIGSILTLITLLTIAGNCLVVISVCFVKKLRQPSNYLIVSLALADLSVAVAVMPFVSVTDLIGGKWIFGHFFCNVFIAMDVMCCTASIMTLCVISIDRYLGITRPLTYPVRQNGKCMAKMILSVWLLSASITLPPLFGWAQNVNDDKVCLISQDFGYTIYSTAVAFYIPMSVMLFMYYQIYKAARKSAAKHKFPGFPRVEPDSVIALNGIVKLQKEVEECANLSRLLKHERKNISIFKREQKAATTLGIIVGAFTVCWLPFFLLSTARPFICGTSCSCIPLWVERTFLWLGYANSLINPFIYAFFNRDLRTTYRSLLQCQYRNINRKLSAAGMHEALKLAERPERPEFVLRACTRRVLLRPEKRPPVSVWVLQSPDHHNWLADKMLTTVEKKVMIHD

[2] = system: Mus musculus; test: Antidepressant activity in albino mouse assessed as reduction of immobility time at 10 mg/kg, ip measured for 4 mins by forced swimming test; type: functional, organism-based; set-up: dose 10 mg/kg
[3] = target: T1, 5-hydroxytryptamine receptor 7; test: Displacement of [3H]5-CT from human 5HT7 receptor expressed in HEK293 cells after 1 hr by liquid scintillation counting; type: cell-based
[4] = target: Sodium-dependent serotonin transporter (Rattus norvegicus) (UniProt P31652); test: Displacement of [3H]5-HT from of SERT in rat midbrain homogenates at 10 uM after 5 mins by scintillation counting; type: tissue-based
Sequence of Sodium-dependent serotonin transporter (Rattus norvegicus) (P31652 whole entry): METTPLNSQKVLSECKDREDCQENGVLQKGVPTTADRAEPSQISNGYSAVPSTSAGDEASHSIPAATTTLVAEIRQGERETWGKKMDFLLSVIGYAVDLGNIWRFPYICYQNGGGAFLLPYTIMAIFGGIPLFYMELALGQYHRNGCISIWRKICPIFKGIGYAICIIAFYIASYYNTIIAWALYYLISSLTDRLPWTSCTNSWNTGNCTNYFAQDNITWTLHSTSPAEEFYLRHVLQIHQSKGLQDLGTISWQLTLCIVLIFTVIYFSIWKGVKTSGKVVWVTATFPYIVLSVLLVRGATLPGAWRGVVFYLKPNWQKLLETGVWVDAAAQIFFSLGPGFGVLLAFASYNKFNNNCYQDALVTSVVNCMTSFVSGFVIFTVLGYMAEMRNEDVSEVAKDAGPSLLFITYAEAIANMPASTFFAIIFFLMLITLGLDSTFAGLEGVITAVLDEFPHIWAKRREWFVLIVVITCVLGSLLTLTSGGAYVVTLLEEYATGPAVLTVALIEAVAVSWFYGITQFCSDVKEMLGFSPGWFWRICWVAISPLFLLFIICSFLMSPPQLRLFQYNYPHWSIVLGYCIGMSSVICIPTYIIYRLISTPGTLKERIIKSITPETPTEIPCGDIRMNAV

[5] = target: Sodium-dependent serotonin transporter (Rattus norvegicus) (UniProt P31652); test: Displacement of [3H]5-HT from of SERT in rat midbrain homogenates at 1 uM after 5 mins by scintillation counting; type: tissue-based
[6] = target: T1, 5-hydroxytryptamine receptor 7; test: Antagonist activity at human 5HT7 receptor expressed in HEK293 cells assessed as inhibition of serotonin-induced cAMP production after 20 mins; type: functional, cell-based
[7] = system: Mus musculus; test: Toxicity in albino mouse assessed as increase in locomotor activity at 10 mg/kg, ip; type: organism-based; set-up: dose 10 mg/kg, route intraperitoneal; conditions: in vivo
[8] = system: Mus musculus; test: Antidepressant activity in albino mouse assessed as reduction of immobility time at 10 mg/kg, ip qd for 15 days by forced swimming test; type: functional, organism-based; set-up: dose 10 mg/kg
[9] = target: Sodium-dependent serotonin transporter (Rattus norvegicus, UniProt P31652); test: Displacement of [3H]5-HT from of SERT in rat midbrain homogenates after 5 mins by scintillation counting; type: tissue-based
Sequence of Sodium-dependent serotonin transporter (P31652 whole entry): as above

[10] = target: T2, 5-hydroxytryptamine receptor 1A (Homo sapiens, UniProt P08908); test: Binding affinity to 5HT1A receptor
T2 sequence (P08908 whole entry): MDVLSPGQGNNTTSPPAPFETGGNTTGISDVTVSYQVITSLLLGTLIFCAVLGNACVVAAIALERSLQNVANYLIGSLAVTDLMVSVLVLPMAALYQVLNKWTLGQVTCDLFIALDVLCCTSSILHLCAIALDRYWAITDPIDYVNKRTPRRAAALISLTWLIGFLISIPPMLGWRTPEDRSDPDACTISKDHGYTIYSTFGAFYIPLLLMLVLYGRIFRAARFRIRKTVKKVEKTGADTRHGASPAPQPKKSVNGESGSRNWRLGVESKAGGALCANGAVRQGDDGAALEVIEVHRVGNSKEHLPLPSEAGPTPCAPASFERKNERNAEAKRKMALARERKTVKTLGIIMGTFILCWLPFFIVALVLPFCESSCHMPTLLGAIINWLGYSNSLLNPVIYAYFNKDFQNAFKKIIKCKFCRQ

[11] = target: T1, 5-hydroxytryptamine receptor 7; test: Partial antagonist activity at human 5HT7 receptor expressed in HEK293 cells assessed as inhibition of serotonin-induced cAMP production after 20 mins; type: functional, cell-based
[12] = system: Mus musculus; test: Antidepressant activity in albino mouse assessed as reduction of immobility time at 20 mg/kg, ip qd for 15 days by forced swimming test; type: functional, organism-based; set-up: dose 20 mg/kg
[13] = system: Mus musculus; test: Antidepressant activity in albino mouse assessed as reduction of immobility time at 10 to 20 mg/kg, ip measured up to 4 mins by forced swimming test; type: functional, organism-based
[14] = target: T1, 5-hydroxytryptamine receptor 7; test: Partial agonist activity at human 5HT7 receptor expressed in HEK293 cells assessed as effect on cAMP production after 20 mins; type: functional, cell-based

| SMILES | Ki [3] | inhibition [4] | inhibition [5] | other results |
| --- | --- | --- | --- | --- |
| N#Cc1ccc(N2CCCN(CCC(O)c3csc4ccccc34)CC2)cc1 (stereo unspecified) | 0.263 µM | 36.7% | 19.7% | Activity [1]: Active; Activity [2]: Active; Activity [6]: Active; Activity [7]: Non-toxic; Activity [8]: Active; IC50 [9]: 57.8 µM; Ki [10]: 3.16 µM |
| O=[N+]([O-])c1ccc(N2CCC(NCCC(O)c3csc4ccccc34)C2)cc1 (single isomer, unassigned) | > 100 µM | 49.2% | 28.1% | – |
| O=C(CCNC1CCN(c2ccc([N+](=O)[O-])cc2)CC1)c1csc2ccc(F)cc12 | 4.79 µM | 35% | 3.1% | Activity [11]: Active; Activity [6]: Active |
| CNCCC(Oc1ccc(C(F)(F)F)cc1)c1ccccc1 (stereo unspecified) | – | – | – | Activity [12]: Active; Activity [13]: inactive |
| O=C(CCN1CC[C@@H](Nc2ccc([N+](=O)[O-])cc2)C1)c1csc2ccccc12 | > 100 µM | 76.5% | 17.9% | – |
| O=C(CCN1CCN(c2ccc([N+](=O)[O-])cc2)CC1)c1csc2ccc(F)cc12 | 91.2 µM | 16.3% | 0% | – |
| O=C(CCN[C@H]1CCN(c2ccc([N+](=O)[O-])cc2)C1)c1csc2ccccc12 | > 100 µM | 36.6% | 0% | – |
| O=C(CCN[C@H]1CCN(c2ccc([N+](=O)[O-])cc2C(F)(F)F)C1)c1csc2ccccc12 | > 100 µM | 97.9% | 28.4% | Activity [7]: Non-toxic; Activity [8]: Active; IC50 [9]: 7.02 µM; Ki [10]: 0.0501 µM |
| Nc1ccc(N2CCN(CCC(=O)c3csc4ccccc34)CC2)cc1 | 14.1 µM | – | – | – |
| OC(CCN1CCC(N2CCOCC2)CC1)c1csc2ccccc12 (stereo unspecified) | 27.5 µM | 63.6% | 2.2% | – |
| O=C(CCNC1CCN(c2ccc([N+](=O)[O-])cc2C(F)(F)F)CC1)c1csc2ccccc12 | 9.12 µM | 62.8% | 26.9% | Activity [14]: Active; Activity [6]: Active |
| N#Cc1ccc(N2CCC(NCCC(=O)c3csc4ccccc34)CC2)cc1 | 7.24 µM | – | – | Activity [14]: Active |
| O=C(CCN1CCN(c2ccc([N+](=O)[O-])cc2)CC1)c1csc2ccccc12 | > 100 µM | 33.2% | 2.1% | – |
| N#Cc1ccc(N2CCN(CCC(O)c3csc4ccccc34)CC2)cc1 (stereo unspecified) | 12.6 µM | 57.7% | 43.5% | Activity [1]: Active; Activity [6]: Active |
| O=C(CCN1CCCN(c2ccc([N+](=O)[O-])cc2C(F)(F)F)CC1)c1csc2ccccc12 | > 100 µM | – | – | – |
| O=C(CCN[C@@H]1CCN(c2ccc([N+](=O)[O-])cc2)C1)c1csc2ccccc12 | > 100 µM | 45.4% | 9% | – |
| O=[N+]([O-])c1ccc(N2CCCN(CCC(O)c3csc4ccccc34)CC2)c(C(F)(F)F)c1 (stereo unspecified) | 8.71 µM | 36% | 0% | Activity [14]: Active |
| N#Cc1ccc(N2CCCN(CCC(=O)c3csc4ccccc34)CC2)cc1 | 15.1 µM | 63.1% | 1.2% | – |
| O=C(CCN1CCCN(c2cnc3ccccc3n2)CC1)c1csc2ccccc12 | 9.55 µM | 58% | 23.8% | – |
| O=C(CCN1CCC(N2CCOCC2)CC1)c1csc2ccccc12 | 53.7 µM | 30.2% | 11.1% | – |
| N#Cc1ccc(N2CCN(CCC(=O)c3csc4ccccc34)CC2)cc1 | > 100 µM | 38.2% | 5.4% | – |
| N#Cc1ccc(N2CC[C@H](NCCC(=O)c3csc4ccccc34)C2)cc1 | > 100 µM | 45.6% | 0% | – |
| N#Cc1ccc(N2CCC(NCCC(O)c3csc4ccccc34)CC2)cc1 (stereo unspecified) | 1.66 µM | 80.4% | 53.1% | Activity [1]: Active; Activity [7]: Non-toxic; Activity [8]: Active; IC50 [9]: 3.66 µM; Ki [10]: 0.158 µM |
